# Values quoted from earlier work, collected in patent publication US20090304721A1, “TOXIN […] RECEPTOR ANTIBODIES” (priority 2005, published 2009).
# Conditions: compared with vincristine and vinblastine; cited from earlier work
compound,measurement,value
COc1cc2cc(c1Cl)N(C)C(=O)C[C@H](OC(=O)[C@H](C)N(C)C(C)=O)[C@]1(C)O[C@H]1[C@H](C)[C@@H]1C[C@@](O)(NC(=O)O1)[C@H](OC)/C=C/C=C(\C)C2 [Maytansine],cytotoxicity in vitro relative to vinca alkaloids,"200 to 1,000 fold"
